Measurements taken from US8865894B2, “Oxazolidin-2-one compounds and uses thereof” (Novartis AG, priority 2012, dated 2014).

Experiments:
human PI3Kα = target: T1, human PI3Kα (Homo sapiens, UniProt P42336); experiment: Biochemical PI3Kalpha (KinaseGlo luminescent kinase assay); details: biochemical, 1 μM ATP, mean of n measurements
T1 construct: made in house
Protocol: Test compounds were dissolved in DMSO (10 mM) and transferred into 1.4 mL flat bottom or V-shaped Matrix tubes carrying a unique 2D matrix chip by individual Novartis compound hubs. The numbers of these chips were distinctively linked to Novartis Pharma Numbers. The stock solutions were stored at −20° C. if not used immediately. For the test procedure the vials were defrosted and identified by a scanner whereby a working sheet was generated that guided the subsequent working steps.
Compounds were either manually diluted in DMSO for individual experiments (96 wells enabling 10 cpds at 8 (single points) concentrations) as described in or prepared as described below if tested for profiling in 384-wells. This format enabled the assay of maximally 40 individual test compounds at 8 concentrations (single points) including 4 reference compounds. The dilution protocol included the production of “pre-dilution plates”, “master plates” and “assay plates”.
96 polypropylene well plates were used as pre-dilution plates. A total of 4 pre-dilution plates were prepared including 10 test compounds each on the plate positions A1-A10, one standard compound at A11 and one DMSO control at A12. Programs have been written to run these pipetting steps on the HamiltonSTAR robots.
Identical “assay plates” were then prepared by pipetting 50 nL each of compound dilutions of the “master plates” into 384-well “assay plates”. The compounds were mixed with 4.5 μL of assays components plus 4.5 μL enzyme corresponding to a 1:181 dilution enabling the final concentration of 10, 3.0, 1.0, 0.3, 0.1, 0.03, 0.01 and 0.003 μM, respectively. The preparation of the “master plates” was handled by the Matrix PlateMate Plus robot and replication of “assay plates” by the HummingBird robot.
Catalytically active human PI3Kα, PI3Kβ, PI3Kδ, and mTOR were cloned, expressed and purified as described (Maira S M, Stauffer F, Brueggen J, Furet P, Schnell C, Fritsch C, Brachmann S, Chène P, de Pover A, Schoemaker K, Fabbro D, Gabriel D, Simonen M, Murphy L, Finan P, Sellers W, García-Echeverría C (2008), Mol Cancer Ther. 7:1851-63 and Maira S M, Pecchi S, Brueggen J, Huh K, Schnell C, Fritsch C, Nagel T, Wiesmann M, Brachmann S, Dorsch M, Chène P, Schoemaker K, De Pover A, Menezes D, Fabbro D, Sellers W, García-Echeverría C, Voliva C F (2011), Mol. Cancer Ther. accepted).
The luminescence-based ATP detection reagent KinaseGlo was obtained from Promega, (Cat. No. V6714, Lot No. 236161) through Catalys, Wallisellen, Switzerland. (L-alpha-phosphatidylinositol (PI), Liver, Bovine) were obtained from Avanti Polar Lipid (Cat. No. 840042C, Lot#LPI-274), Phosphatidylinositol-4,5-bisphosphate (PIP(4,5)2 (Avanti, Cat. No. 840046×) or L-α-phosphatidylinositol (PI) was obtained from Avanti Polar Lipid (Cat. No. 840042C, Lot#LPI-274). L-α-Phosphatidylserine (PS) was from Avanti Polar Lipid (Cat. No. 840032C), n-OctylGlucoside Avanti Polar Lipid (Cat. No. 10634425001). Luminescence is a well established readout to determine ATP concentrations and can thus be used to follow the activity of many kinases regardless of their substrate. The Kinase Glo Luminescent Kinase Assay (Promega, Madison/Wis., USA) is a homogeneous HTS method of measuring kinase activity by quantifying the amount of ATP remaining in solution following a kinase reaction.
50 nL of compound dilutions were dispensed onto black 384-well low volume Non Binding Styrene (NBS) plates (Costar Cat. No. NBS#3676) as described in section 8.2. L-α-phosphatidylinositol (PI), provided as 10 mg/ml solution in methanol, was transferred into a glass tube and dried under nitrogen beam. It was then resuspended in 3% OctylGlucoside by vortexing and stored at 4° C. 5 μL of a mix of PI/OG with the PI3Ka and Pi3Kb subtypes were added. Kinase reactions were started by addition of 5 μl of ATP-mix containing in a final volume 10 μL 10 mM TRIS-HCl pH 7.5, 3 mM MgCl2, 50 mM NaCl, 0.05% CHAPS, 1 mM DTT and 1 μM ATP, and occurred at room temperature.

A2058 cells = experiment: Cell cycle G2/M arrest Cytospin assay to detect tubulin binding (off-target); format: cell-based; design: key: 0=no condensed DNA observed (indicating no off target activity); 1=(indicating weak off target activity); 2=(indicating medium off target activity); 3=large amount of condensed DNA observed (indicating strong off-target activity); details: 5 μM test item, 24 hours
Protocol: The off-target effect (evidence of tubulin binding) was measured as follows.
Cell cycle G2/M arrest Cytospin assay to detect tubulin binding (off-target) binding activities of MAPP derivatives: 5×10^5 cells A2058 cells were plated in 6-well cluster, with 2 mL of DMEM (high Glucose containing 1% sodium pyruvate, 1% glutamin and 10% FCS). 18 hours later, the test items were added at a concentration of 5 μM (spiking 1 μL of a 10 mM solution of the test item). 24 hours later, the cells were trypsinized and transferred into a 15 mL conical tube. Cells are then pelleted by centrifugation, and resuspended with PBS/0 (containing 10% FCS). Cells are counted with a CASY counter, and each samples equilibrated to 1×10^6 cells/mL. […] The staining was visually assessed for the presence of condensed DNA and given a score where 0=no condensed DNA observed (indicating no off target activity), 1=(indicating weak off target activity), 2=(indicating medium off target activity), 3=large amount of condensed DNA observed (indicating strong off-target activity).

T1 sequence (P42336 with tags, fused parts or gaps limits assumed): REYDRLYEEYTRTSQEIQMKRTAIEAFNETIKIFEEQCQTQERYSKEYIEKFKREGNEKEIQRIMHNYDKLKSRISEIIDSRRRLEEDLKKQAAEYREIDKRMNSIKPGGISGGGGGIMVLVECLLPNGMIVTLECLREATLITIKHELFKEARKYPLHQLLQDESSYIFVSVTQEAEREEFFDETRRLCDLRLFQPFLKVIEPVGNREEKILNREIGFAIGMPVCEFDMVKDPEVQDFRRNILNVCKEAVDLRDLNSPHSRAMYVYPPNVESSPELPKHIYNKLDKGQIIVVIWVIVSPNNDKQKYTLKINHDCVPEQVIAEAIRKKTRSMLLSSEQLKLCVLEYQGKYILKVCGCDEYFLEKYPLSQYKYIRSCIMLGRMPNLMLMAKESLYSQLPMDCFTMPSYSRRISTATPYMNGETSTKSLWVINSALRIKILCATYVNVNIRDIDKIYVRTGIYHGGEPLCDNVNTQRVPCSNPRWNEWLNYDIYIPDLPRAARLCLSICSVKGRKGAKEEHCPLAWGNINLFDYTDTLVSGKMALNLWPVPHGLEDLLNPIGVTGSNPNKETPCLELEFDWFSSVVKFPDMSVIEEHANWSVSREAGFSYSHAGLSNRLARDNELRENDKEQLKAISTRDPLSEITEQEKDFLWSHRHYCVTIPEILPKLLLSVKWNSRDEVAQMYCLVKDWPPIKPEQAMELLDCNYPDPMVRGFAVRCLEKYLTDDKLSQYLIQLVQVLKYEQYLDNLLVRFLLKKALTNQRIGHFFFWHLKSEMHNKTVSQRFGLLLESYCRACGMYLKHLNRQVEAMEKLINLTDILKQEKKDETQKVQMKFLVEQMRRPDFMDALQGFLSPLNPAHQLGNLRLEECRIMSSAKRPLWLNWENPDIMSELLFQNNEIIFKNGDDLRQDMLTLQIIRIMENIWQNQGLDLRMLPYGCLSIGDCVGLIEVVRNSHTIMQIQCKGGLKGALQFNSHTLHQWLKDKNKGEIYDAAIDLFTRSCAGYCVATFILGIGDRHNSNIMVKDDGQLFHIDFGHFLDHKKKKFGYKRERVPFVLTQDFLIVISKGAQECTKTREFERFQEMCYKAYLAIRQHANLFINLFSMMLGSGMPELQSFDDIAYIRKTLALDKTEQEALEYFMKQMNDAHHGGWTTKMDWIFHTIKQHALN

| PI3Ka/ IC50 (human PI3Kα) [umol I-1] | Score (condensed DNA, G2/M arrest; off-target tubulin binding) (A2058 cells) | SMILES |
| --- | --- | --- |
| 0.026 | 0 | C[C@H]1[C@H](CO)OC(=O)N1c1cc(-c2cnc(N)nc2C(F)(F)F)nc(N2CCOCC2)n1 [Example 15, (4S,5R)-3-(2′-Amino-2-morpholin-4-yl-4′-trifluoromethyl-[4,5′]bipyrimidinyl-6-yl)-5-hydroxymethyl-4-methyl-oxazolidin-2-one] |
| 0.030 | 0 | C[C@H]1CN(c2cc(-c3cnc(N)nc3C(F)(F)F)nc(N3CCOCC3)n2)C(=O)O1 [Example 16, (S)-3-(2′-Amino-2-morpholin-4-yl-4′-trifluoromethyl-[4,5′]bipyrimidinyl-6-yl)-5-methyl-oxazolidin-2-one] |
| 0.017 | 0 | [2H]C1([2H])OC([2H])([2H])C([2H])([2H])N(c2nc(-c3cnc(N)nc3C(F)(F)F)cc(N3C(=O)OC[C@@H]3C)n2)C1([2H])[2H] [Example 17, (S)-3-(2′-amino-2-D8-morpholino-4′-(trifluoromethyl)-[4,5′-bipyrimidin]-6-yl)-4-methyloxazolidin-2-one] |
| 0.009 | 0 | C[C@H]1OC(=O)N(c2cc(-c3cnc(N)nc3C(F)(F)F)nc(N3CCOCC3)n2)[C@H]1CO [Example 18, (4S,5R)-3-(2′-Amino-2-morpholin-4-yl-4′-trifluoromethyl-[4,5′]bipyrimidinyl-6-yl)-4-hydroxymethyl-5-methyl-oxazolidin-2-one] |
| 0.006 | 0 | C[C@H]1[C@@H](CO)OC(=O)N1c1cc(-c2cnc(N)nc2C(F)(F)F)nc(N2CCOCC2)n1 [Example 19, (4S,5S)-3-(2′-Amino-2-morpholin-4-yl-4′-trifluoromethyl-[4,5′]bipyrimidinyl-6-yl)-5-hydroxymethyl-4-methyl-oxazolidin-2-one] |
| 0.024 | 1-2 | Nc1ncc(-c2cc(N3C[C@H](CO)OC3=O)nc(N3CCOCC3)n2)c(C(F)(F)F)n1 [Example 20, (R)-3-(2′-Amino-2-morpholin-4-yl-4′-trifluoromethyl-[4,5′]bipyrimidinyl-6-yl)-5-hydroxymethyl-oxazolidin-2-one] |
| 0.019 | 0 | Nc1ncc(-c2cc(N3C(=O)O[C@H]4COC[C@H]43)nc(N3CCOCC3)n2)c(C(F)(F)F)n1 [Example 21, (3aR,6aR)-3-(2′-amino-2-morpholino-4′-(trifluoromethyl)-[4,5′-bipyrimidin]-6-yl)-tetrahydrofuro[3,4-d]oxazol-2(3H)-one] |
| 0.006 | 0 | C[C@H]1[C@@H](CCO)OC(=O)N1c1cc(-c2cnc(N)nc2C(F)(F)F)nc(N2CCOCC2)n1 [Example 23, (4S,5R)-3-(2′-Amino-2-morpholino-4′-(trifluoromethyl)-[4,5′-bipyrimidin]-6-yl)-5-(2-hydroxyethyl)-4-methyloxazolidin-2-one] |
